Among the data in patent publication US7186743B2, “Substituted pyrazolyl compounds for the treatment of inflammation” (Pharmacia Corporation, priority 2001, dated 2007) are IC50 values, retold here.

Where a name gives a salt, the structure may show the parent alone.

For the first experiment, the target named is T1, IKK2 (Homo sapiens, UniProt O14920).
T1 construct: made in house; host or cells: insect cells (baculovirus, pFastBac; SF9)
T1 sequence (O14920 1-756): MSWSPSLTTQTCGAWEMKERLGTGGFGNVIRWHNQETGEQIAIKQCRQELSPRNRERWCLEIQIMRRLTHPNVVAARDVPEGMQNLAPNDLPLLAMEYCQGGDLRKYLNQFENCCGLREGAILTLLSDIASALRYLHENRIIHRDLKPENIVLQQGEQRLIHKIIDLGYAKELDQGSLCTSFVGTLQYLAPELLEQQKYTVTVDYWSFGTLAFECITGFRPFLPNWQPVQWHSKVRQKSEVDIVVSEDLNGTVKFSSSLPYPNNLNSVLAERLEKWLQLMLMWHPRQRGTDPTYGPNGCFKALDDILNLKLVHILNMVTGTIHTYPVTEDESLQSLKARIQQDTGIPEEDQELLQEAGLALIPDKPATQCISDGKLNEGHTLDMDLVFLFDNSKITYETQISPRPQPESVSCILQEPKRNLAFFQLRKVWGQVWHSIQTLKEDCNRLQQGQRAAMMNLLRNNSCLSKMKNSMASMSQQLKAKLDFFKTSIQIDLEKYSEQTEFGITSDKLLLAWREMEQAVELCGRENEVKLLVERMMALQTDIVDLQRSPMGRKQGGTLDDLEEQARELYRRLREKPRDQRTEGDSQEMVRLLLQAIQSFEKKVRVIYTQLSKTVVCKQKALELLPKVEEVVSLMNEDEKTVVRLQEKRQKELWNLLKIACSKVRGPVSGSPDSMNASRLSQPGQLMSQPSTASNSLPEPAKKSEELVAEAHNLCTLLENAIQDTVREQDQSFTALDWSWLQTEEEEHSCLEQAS
The experiment can be described thus: IKKβ Resin Enzyme Assay (IKK2 resin). The format is biochemical. The settings on record: Table 12; read-out: IKK2 Resin IC50. The method, boiled down:
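Radiometric test: [γ-33P]ATP incorporation into a biotinylated IκBα peptide, 30 min at 25° C, pH 7.6 Hepes with MgCl2/MnCl2 and 1 μM cold ATP. Reaction is quenched with Dowex resin and the supernatant is counted. Kinase is FLAG-purified homodimeric recombinant human IKK2 from insect cells.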
The IC50 is the point on the concentration scale where inhibition reaches its midpoint. For the compound `NC(=O)c1nn(-c2ccc(/C=C/C(=O)NCc3ccco3)cc2)c2c1CCc1ccc(NC(=O)c3ccccc3Cl)cc1-2` [Example 310, 8-[(2-chlorobenzoyl)amino]-1-(4-{(1E)-3-[(2-furylmethyl)amino]-3-oxoprop-1-enyl}phenyl)-4,5-dihydro-1H-benzo[g]indazole-3-carboxamide], the IC50 is at most 1000 nM.
Same read-out and setting: for `CNC(=O)/C=C/c1ccc(-n2nc(C(N)=O)c3c2-c2cc(NC(=O)c4ccccc4Cl)ccc2CC3)cc1` [Example 311, 8-[(2-chlorobenzoyl)amino]-1-{4-[(1E)-3-(methylamino)-3-oxoprop-1-enyl]phenyl}-4,5-dihydro-1H-benzo[g]indazole-3-carboxamide] the value was at most 1000 nM; for `CCNC(=O)/C=C/c1ccc(-n2nc(C(N)=O)c3c2-c2cc(NC(=O)c4ccccc4Cl)ccc2CC3)cc1` [Example 312, 8-[(2-chlorobenzoyl)amino]-1-{4-[(1E)-3-(ethylamino)-3-oxoprop-1-enyl]phenyl)-4,5-dihydro-1H-benzo[g]indazole-3-carboxamidee], at most 1000 nM.

The experiment is the same for the next values; noted with them: Table 14; read-out: IKK2 Resin IC50.
Consider `NC(=O)c1nn(-c2ccc([N+](=O)[O-])cc2)c2c1CCc1ccc(NC(=O)c3ccccc3Cl)cc1-2` [Example 324, 8-[(2-chlorobenzoyl)amino]-1-(4-nitrophenyl)-4,5-dihydro-1H-benzo[g]indazole-3-carboxamide], for which the IC50 is at most 1000 nM.
On the same count and under the same terms, for `NC(=O)c1nn(-c2ccccc2)c2c1CCc1ccc(NC(=O)c3ccccc3Cl)cc1-2` [Example 328, 8-[(2-chlorobenzoyl)amino]-1-phenyl-4,5-dihydro-1H-benzo[g]indazole-3-carboxamide] the value was at most 1000 nM; for `NC(=O)c1nn(-c2ccccc2)c2c1CCc1ccc(NC(=O)c3ccncc3Cl)cc1-2` [Example 331, 8-[(3-chloroisonicotinoyl)amino]-1-phenyl-4,5-dihydro-1H-benzo[g]indazole-3-carboxamide], at most 1000 nM.
Same read-out and setting: the figure for `Cc1ccc(-n2nc(C(N)=O)c3c2-c2cc(NC(=O)c4ccccc4Cl)ccc2CC3)cc1` [Example 335, 8-[(2-chlorobenzoyl)amino]-1-(4-methylphenyl)-4,5-dihydro-1H-benzo[g]indazole-3-carboxamide] is at most 1000 nM; for `NC(=O)c1nn(-c2ccncc2)c2c1CCc1ccc(NC(=O)c3ccccc3Cl)cc1-2` [Example 338, 8-[(2-chlorobenzoyl)amino]-1-pyridin-4-yl-4,5-dihydro-1H-benzo[g]mdazole-3-carboxamide] it is at most 1000 nM; for `NC(=O)c1nn(-c2cccc(F)c2)c2c1CCc1ccc(NC(=O)c3ccccc3Cl)cc1-2` [Example 339, 8-[(2-chlorobenzoyl)amino]-1-(3-fluorophenyl)-4,5-dihydro-1H-benzo[g]indazole-3-carboxamide] it is at most 1000 nM.
Consider `NC(=O)c1nn(-c2ccccc2F)c2c1CCc1ccc(NC(=O)c3ccccc3Cl)cc1-2` [Example 341, 8-[(2-chlorobenzoyl)amino]-1-(2-fluorophenyl)-4,5-dihydro-1H-benzo[g]indazole-3-carboxamide], for which the IC50 is at most 1000 nM.
The same measure, in the same setting: for `NC(=O)c1nn(-c2cccc(F)c2)c2c1CCc1ccc(NC(=O)c3cccnc3Cl)cc1-2` [Example 345, 8-{[(2-chloropyridin-3-yl)carbonyl]amino}-1-(3-fluorophenyl)-4,5-dihydro-1H-benzo[g]indazole-3-carboxamide] the value was at most 1000 nM; for `NC(=O)c1nn(-c2cc(F)cc(F)c2)c2c1CCc1ccc(NC(=O)c3cccnc3Cl)cc1-2` [Example 347, 8-{[(2-chloropyridin-3-yl)carbonyl]amino}-1-(3,5-difluorophenyl)-4,5-dihydro-1H-benzo[g]indazole-3-carboxamide], at most 1000 nM.
On the same count and under the same terms, for `NC(=O)c1nn(-c2ccc(Br)cc2)c2c1CCc1ccc(NC(=O)c3ccccc3Cl)cc1-2` [Example 350, 1-(4-bromophenyl)-8-[(2-chlorobenzoyl)amino]-4,5-dihydro-1H-benzo[g]indazole-3-carboxamide] the value was at most 1000 nM; for `NC(=O)c1nn(-c2ccc(F)cc2F)c2c1CCc1ccc(NC(=O)c3ccccc3Cl)cc1-2` [Example 353, 8-[(2-chlorobenzoyl)amino]-1-(2,4-difluorophenyl)-4,5-dihydro-1H-benzo[g]indazole-3-carboxamide], at most 1000 nM; for `NC(=O)c1nn(-c2ccc(F)c(F)c2)c2c1CCc1ccc(NC(=O)c3ccncc3Cl)cc1-2` [Example 354, 8-[(3-chloroisonicotinoyl)amino]-1-(3,4-difluorophenyl)-4,5-dihydro-1H-benzo[g]indazole-3-carboxamide], at most 1000 nM.
The same measure, in the same setting: the figure for `NC(=O)c1nn(-c2cc(F)cc(F)c2)c2c1CCc1ccc(NC(=O)c3ccncc3Cl)cc1-2` [Example 355, 8-[(3-chloroisonicotinoyl)amino]-1-(3,5-difluorophenyl)-4,5-dihydro-1H-benzo[g]indazole-3-carboxamide] is at most 1000 nM; for `NC(=O)c1nn(-c2ccc(F)c(Cl)c2)c2c1CCc1ccc(NC(=O)c3ccccc3Cl)cc1-2` [Example 356, 8-[(2-chlorobenzoyl)amino]-1-(3-chloro-4-fluorophenyl)-4,5-dihydro-1H-benzo[g]indazole-3-carboxamide] it is at most 1000 nM.
`NC(=O)c1nn(-c2ccc(S(=O)(=O)C(F)(F)F)cc2)c2c1CCc1ccc(NC(=O)c3ccncc3Cl)cc1-2` [Example 358, 8-[(3-chloroisonicotinoyl)amino]-1-{4-[(trifluoromethyl)sulfonyl]phenyl}-4,5-dihydro-1H-benzo[g]indazole-3-carboxamide hydrochloride]: the IC50 was at most 1000 nM.
Same read-out and setting: the figure for `NC(=O)c1nn(-c2ccc(S(=O)(=O)C(F)(F)F)cc2)c2c1CCc1ccc(NC(=O)c3cccnc3Cl)cc1-2` [Example 359, 8-{[(2-chloropyridin-3-yl)carbonyl]amino}-1-{4-[(trifluoromethyl)sulfonyl]phenyl}-4,5-dihydro-1H-benzo[g]indazole-3-carboxamide] is at most 1000 nM; for `NC(=O)c1nn(-c2ccc(F)c(F)c2)c2c1CCc1ccc(NC(=O)c3ccccc3Cl)cc1-2` [Example 363, 8-[(2-chlorobenzoyl)amino]-1-(3,4-difluorophenyl)-4,5-dihydro-1H-benzo[g]indazole-3-carboxamide] it is at most 1000 nM.
Consider `NC(=O)c1nn(-c2ccc(F)c(F)c2)c2c1CCc1ccc(NC(=O)c3cccnc3Cl)cc1-2` [Example 364, 8-{[(2-chloropyridin-3-yl)carbonyl]amino}-1-(3,4-difluorophenyl)-4,5-dihydro-1H-benzo[g]indazole-3-carboxamide], for which the IC50 was at most 1000 nM.
Still for that read-out and setting: the figure for `NC(=O)c1nn(-c2ccc(F)cc2F)c2c1CCc1ccc(NC(=O)c3cccnc3Cl)cc1-2` [Example 366, 8-{[(2-chloropyridin-3-yl)carbonyl]amino}-1-(2,4-difluorophenyl)-4,5-dihydro-1H-benzo[g]indazole-3-carboxamide] is at most 1000 nM.

The same experiment, now with this note: Table 15; read-out: IKK2 Resin IC50.
Consider `NC(=O)c1nn(-c2ccc(N)cc2)c2c1CCc1ccc(NC(=O)c3ccccc3Cl)cc1-2` [Example 370, 1-(4-aminophenyl)-8-[(2-chlorobenzoyl)amino]-4,5-dihydro-1H-benzo[g]indazole-3-carboxamide], for which the IC50 was at most 1000 nM.
In the case of `CC(=O)Nc1ccc(-n2nc(C(N)=O)c3c2-c2cc(NC(=O)c4ccccc4Cl)ccc2CC3)cc1` [Example 371, 1-[4-(acetylamino)phenyl]-8-[(2-chlorobenzoyl)amino]-4,5-dihydro-1H-benzo[g]indazole-3-carboxamide], the IC50 was at most 1000 nM.
The same measure, in the same setting: for `CS(=O)(=O)Nc1ccc(-n2nc(C(N)=O)c3c2-c2cc(NC(=O)c4ccccc4Cl)ccc2CC3)cc1` [Example 372, 8-[(2-chlorobenzoyl)amino]-1-{4-[(methylsulfonyl)amino]phenyl}-4,5-dihydro-1H-benzo[g]indazole-3-carboxamide] the value was at most 1000 nM.

The experiment is the same for the next values; noted with them: read-out: IKK-2 resin IC50.
Turning to `CS(=O)(=O)c1ccc(-n2nc(C(N)=O)c3c2-c2cc(NC(=O)c4ccccc4Cl)ccc2CC3)nc1` [Example 367, 8-[(2-chlorobenzoyl)amino]-1-[5-(methylsulfonyl)pyridin-2-yl]-4,5-dihydro-1H-benzo[g]indazole-3-carboxamide], the IC50 is at most 1000 nM.
Consider `CS(=O)(=O)c1ccc(-n2nc(C(N)=O)c3c2-c2cc(NC(=O)c4ccccc4Cl)ccc2CC3)cn1` [Example 368, 8-[(2-chlorobenzoyl)amino]-1-[6-(methylsulfonyl)pyridin-3-yl]-4,5-dihydro-1H-benzo[g]indazole-3-carboxamide], for which the IC50 is at most 1000 nM.
Consider `N#Cc1ccc(-n2nc(C(N)=O)c3c2-c2cc(NC(=O)c4ccccc4Cl)ccc2CC3)cc1` [Example 369, 8-[(2-chlorobenzoyl)amino]-1-(4-cyanophenyl)-4,5-dihydro-1H-benzo[g]indazole-3-carboxamide], for which the IC50 was at most 1000 nM.
